Test results as given in patent publication US5618831A, “Composition and method for treating cancer” (Fuji Photo Film Co., Ltd., priority 1992, dated 1997).

Experiments:
[1] = absorption spectrum of methanol solutions; type: physicochemical; conditions: for ε (molar absorptivity): at λmax; for λmax (MeOH): maximum absorption wavelength
Method: Absorption spectrum of methanol solutions of the compounds used in the present invention was determined.

[2] = test system: human colon carcinoma cell line CX-1; test: colony formation, human colon carcinoma cell line CX-1 (24 h exposure, 7-10 days incubation); type: cell-based; conditions: Table I; for Selectivity: ratio of IC50 for CV-1 and IC50 for CX-1; for IC50: Homo sapiens, CX-1 cells, 24 h treatment, colony number reduced to 50% of control
Method: (§1) CX-1 cells (2,000 cells/well) and CV-1 cells (1,000 cells/well) were plated in 24-well plastic culture plates. […] The control received culture media only. Cells were treated with compounds of General Formulas (I) to (III) at 37° C. for 24 hours. After rinsing with fresh culture medium three times, the cells were further incubated at 37° C. for 7 to 10 days. Cell colonies were fixed and stained with 2% crystal violet in 70% ethanol for 10 minutes and rinsed in water. […] The selectivity is defined as the ratio of IC50 for CV-1 and IC50 for CX-1.

normal nude mice = test: toxicity to normal nude mice
KB cell = test: colony formation, KB cell (protocol of Example 1); conditions: for IC50: Homo sapiens, KB, read-out: KB Cell (IC50); for Selectivity: Table II, ratio of IC50 for CV-1 and IC50 for KB cell
Method: as §1

[3] = test system: LOX, a human melanoma cell line; test: nude mice bearing human melanoma (LOX, i.p.), survival; type: in vivo, human (LOX) in male athymic Swiss nu/nu mouse; conditions: mean survival treated / untreated control
Method: Nude Mice Bearing Human Melanoma as a Model System
LOX, a human melanoma cell line, grown subcutaneously in nude mice was excised, trypsinized to yield a single cell suspension using a metal grid with a […]. Red blood cells were lysed by incubation with 0.17 molar ammonium chloride at 4° C. for 20 minutes. Five million viable trypan blue negative cells made up in 0.1 ml of Dulbecco modified Eagles' medium (DME) were injected into the peritoneal cavity of a male athymic Swiss nu/nu mouse. The control group and each treatment group consisted of 5 to 10 mice. Treatment was commenced the following day by intraperitoneal injection.
Ten control mice received 0.25 ml of 2% dextrose on those days the treated groups were injected with the compounds of this invention. The compounds used in this invention which were tested are listed in Table III below and the results obtained are also shown in Table III. T/C is the ratio, expressed as a percentage of the mean survival age of the treated group to the mean survival age of the untreated control group.

[4] = test system: normal monkey kidney epithelial cell line CV-1; test: colony formation, normal monkey kidney epithelial cell line CV-1 (24 h exposure, 7-10 days incubation); type: cell-based; conditions: Primates, CV-1 cells
Method: as §1

[5] = Table II, protocol of Example 1
[6] = Table I, 24 h treatment, colony number reduced to 50% of control

Row | ε (molar absorptivity) [1] | λmax (MeOH) [1] [nm] | IC50 (KB cell) [µg/mL] | SMILES | Selectivity [2] | Selectivity (KB cell) | also measured
1 | 4.87 × 10^4 | 460 |  | CCN1C(=O)C(=C2Sc3ccccc3N2C)SC1=Nc1sc2ccccc2[n+]1CC [Compound I-9] |  |  | 
2 |  |  |  | CCCN1C(=CC=CC=Cc2oc3ccccc3[n+]2CCC)Oc2ccccc21 [E, reference compound] | 12 |  | 
3 |  |  |  | CCN1C(=CC=c2sc(=Cc3sc4c([n+]3CC)CCCC4)n(CC)c2=O)Oc2ccccc21 [Compound C, reference compound] | 50 |  | toxicity to normal nude mice (normal nude mice): less toxic to normal nude mice
4 |  |  |  | CCN1C(=CC=CC=Cc2sc3ccccc3[n+]2CC)Oc2ccccc21 [F, reference compound] | 50 |  | 
5 |  |  | 0.39 | CCN1C(=O)C(=C2C=Cc3ccccc3N2C)SC1=Nc1cccc[n+]1CC [Compound I-33] |  | 77 | 
6 |  |  | 0.037 | CCN1C(=O)C(=C2Sc3ccc4ccccc4c3N2C)SC1=Nc1scc[n+]1C [Compound I-47] |  | 686 | T/C (%) ([3]; 10 mg/kg i.p. on day 1, 3, 5): 207%; IC50 [4, 5]: 25.4 µg/mL
7 | 5.78 × 10^4 | 520 |  | CCN1CCSC1=CC=C1SC(=Nc2sc3ccccc3[n+]2CC)N(CC)C1=O [II-2] |  |  | 
8 |  |  |  | CCN1C(=CC=Cc2sc3c4ccccc4ccc3[n+]2CC)Sc2c1ccc1ccccc21 [B, reference compound] | < 2 |  | 
9 | 3.52 × 10^4 | 434 |  | CCN1C(=O)C(=C2Sc3ccccc3N2C)SC1=Nc1cccc[n+]1CC [Compound I-6, 1-ethyl-2-{[3-ethyl-5-(3-methylbenzothiazolin-2-ylidene)]-4-oxothiazolin-2-ylideneamino} pyridinium iodide] |  |  | 
10 | 8.31 × 10^4 | 570 |  | CCN1C(C)=CSC1=CC=C1SC(=Nc2sc3cc(OC)ccc3[n+]2CC)N(CC)C1=O [Compound II-3] |  |  | 
11 |  |  | 0.083 | CCN1C(=O)C(=C2Sc3ccccc3N2C)SC1=Nc1scc[n+]1CC [Compound I-46] |  | 330 | T/C (%) ([3]; 10 mg/kg i.p. on day 1, 3, 4, 5, 6, 8): 175%; IC50 [4, 5]: 27.4 µg/mL
12 | 4.74 × 10^4 | 466 | 0.15 | CCN1C(=O)C(=C2Sc3ccccc3N2C)SC1=Nc1sc2cc(OC)ccc2[n+]1CC [Compound I-18] |  | 177 | IC50 [4, 5]: 26.5 µg/mL
13 |  |  |  | CCN1C(=O)C(=C2Sc3ccc(C)cc3N2C)SC1=Nc1sc2ccccc2[n+]1CC [Compound I-19] | 120 |  | IC50 [4, 6]: 6 µg/mL; IC50 [2]: 0.05 µg/mL
14 | 4.17 × 10^4 | 462 |  | CCN1C(=O)C(=C2Sc3ccccc3N2C)SC1=Nc1sc2cc(Cl)ccc2[n+]1CC [Compound I-17] |  |  | 
15 | 9.44 × 10^4 | 593 |  | CCn1c(=Cc2sc3ccccc3[n+]2CC)sc(=CC=C2Sc3ccccc3N2C)c1=O [Compound S-2, reference compound] |  |  | 
16 |  |  | 0.078 | CN1C(=O)C(=CC=C2Sc3ccccc3N2C)SC1=Nc1scc[n+]1C [II-24] |  | 336 | IC50 [4, 5]: 26.2 µg/mL
17 | 4.50 × 10^4 | 467 |  | CCN1C(=O)C(=C2Sc3ccc(OC)cc3N2C)SC1=Nc1sc2ccccc2[n+]1CC [Compound I-8] |  |  | 
18 | 7.58 × 10^4 | 564 | 0.15 | CC[n+]1c(N=C2SC(=CC=C3Sc4ccccc4N3C)C(=O)N2C)sc2ccccc21 [II-4] |  | 196 | IC50 [4, 5]: 29.4 µg/mL
19 | 4.45 × 10^4 | 460 |  | CCN1C(=O)C(=C2Sc3ccc(OC)cc3N2C)SC1=Nc1sc2ccccc2[n+]1CC [Compound I-5] |  |  | 
20 |  |  |  | CCN1C(=CC=C(Cl)C=Cc2sc3ccc4ccccc4c3[n+]2CC)Sc2ccc3ccccc3c21 [H, reference compound] | 2.5 |  | 
21 | 3.37 × 10^4 | 435 |  | CCN1C(=O)C(=C2Sc3ccccc3N2C)SC1=Nc1cccc[n+]1CC [Compound I-7] |  |  | 
22 |  |  |  | CCN1C(=CC(C)=Cc2sc3c4ccccc4ccc3[n+]2CC)Sc2c1ccc1ccccc21 [G, reference compound] | 5 |  | 
23 | 7.49 × 10^4 | 500 |  | CCn1c(=Cc2sc3ccccc3[n+]2CC)sc(=C2Sc3ccccc3N2C)c1=O [Compound S-1, reference compound] |  |  | 

Row | SMILES | ε (molar absorptivity) [1] | λmax (MeOH) [1] [nm] | IC50 (KB cell) [µg/mL] | Selectivity [2] | Selectivity (KB cell) | also measured
24 | CCN1C(=O)C(=C2Sc3ccccc3N2C)SC1=Nc1scc[n+]1C [Compound I-10] | 3.55 × 10^4 | 444 |  | > 250 |  | T/C (%) ([3]; 15 mg/kg i.p. on day 1, 2, 3, 6, 8, 10): 173%; IC50 [4, 6]: > 20 µg/mL; IC50 [2]: 0.08 µg/mL
25 | CCN1C(=O)C(=C2Sc3c(ccc4ccccc34)N2C)SC1=Nc1cccc[n+]1CC [Compound I-25] |  |  | 0.17 | 100 | 176 | IC50 [4, 6]: 10 µg/mL; IC50 [2]: 0.1 µg/mL
26 | CCN1C(=O)C(=C2C=CN(C)c3ccccc32)SC1=Nc1scc[n+]1CC [Compound I-54] |  |  | 0.27 |  | 111 | T/C (%) ([3]; 6 mg/kg i.p. on day 1, 3, 4, 5, 6, 8): 169%
27 | CCN1C(=O)C(=CC=C2C=Cc3ccccc3N2CC)SC1=Nc1ccc2ccccc2[n+]1C [II-9] | 5.80 × 10^4 | 582 | 0.15 |  | 200 | 
28 | CCN1C(=O)C(=CC=C2Sc3ccc4ccccc4c3N2CC)SC1=Nc1scc[n+]1C [II-7] |  |  | 0.15 | 133 | 200 | IC50 [4, 6]: 4 µg/mL; IC50 [2]: 0.03 µg/mL
